Molecules are shown by their SMILES.

This assay has as its target IgE-Tb binding to soluble IgE receptor FcεR1α (Y131A mutation) (Homo sapiens, UniProt P01854, N146Q/N252Q). The assay is described as follows: In vitro FRET assay: inhibition of binding of IgE-Tb to receptor FcεR1α-Y131A-AF488. The following applies: read-out: FRET IC50 range.

IgE-Tb binding to soluble IgE receptor FcεR1α (Y131A mutation), sequence (P01854 whole entry N146Q/N252Q, looked up): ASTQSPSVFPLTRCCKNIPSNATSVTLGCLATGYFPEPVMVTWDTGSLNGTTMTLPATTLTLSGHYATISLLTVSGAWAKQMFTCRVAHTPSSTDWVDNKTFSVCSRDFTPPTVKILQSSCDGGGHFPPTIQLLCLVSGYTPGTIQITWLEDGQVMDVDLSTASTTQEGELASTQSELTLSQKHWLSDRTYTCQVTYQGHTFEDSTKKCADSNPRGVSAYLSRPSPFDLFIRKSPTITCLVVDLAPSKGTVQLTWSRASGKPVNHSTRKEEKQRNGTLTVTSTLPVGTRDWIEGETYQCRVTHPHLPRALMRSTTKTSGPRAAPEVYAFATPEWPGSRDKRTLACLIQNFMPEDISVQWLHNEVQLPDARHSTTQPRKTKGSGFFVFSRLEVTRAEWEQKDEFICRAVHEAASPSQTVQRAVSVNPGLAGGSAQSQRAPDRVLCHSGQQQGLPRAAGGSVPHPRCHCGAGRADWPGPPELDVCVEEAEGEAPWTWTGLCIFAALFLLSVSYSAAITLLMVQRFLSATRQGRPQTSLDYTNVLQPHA

The term IC50 denotes the point on the concentration scale where inhibition reaches its midpoint. As for `CC(C)CNS(=O)(=O)c1cc2c(c3cnc(C4CC4)cc13)CCC2(C)O` (stereo not shown) [Example 49, 3-cyclopropyl-7-hydroxy-7-methyl-N-(2-methylpropyl)-8,9-dihydrocyclopenta[h]isoquinoline-5-sulfonamide], the IC50 fell in the range of 100 to 2000 nM.

For `CC(C)CNS(=O)(=O)c1cc2c(c3cnc(C4CC4)cc13)C(Nc1nncn1-c1cccnc1)CC2` (stereo not shown) [Example 75, 3-cyclopropyl-N-(2-methylpropyl)-9-[(4-pyridin-3-yl-1,2,4-triazol-3-yl]amino]-8,9-dihydro-7H-cyclopenta[h]isoquinoline-5-sulfonamide], the IC50 was 10 to 50 nM.

Regarding `CC(C)CNS(=O)(=O)c1cc2c(c3cnc(C4CC4)cc13)[C@H](NC(=O)c1cccnc1)CC2` (single isomer, unassigned) [Example 21, N-[(9R*)-3-cyclopropyl-5-(2-methylpropylsulfamoyl)-8,9-dihydro-7H-cyclopenta[h]isoquinolin-9-yl]pyridine-3-carboxamide], the IC50 lay in the range of 10 to 50 nM. The value for `Cn1nnc(-c2ccc(NC3CCc4cc(S(=O)(=O)NCC(C)(C)F)c5cc(C6CC6)ncc5c43)cn2)n1` (stereo not shown) [Example 77, 3-cyclopropyl-N-(2-fluoro-2-methylpropyl)-9-[[6-(2-methyltetrazol-5-yl)pyridin-3-yl]amino]-8,9-dihydro-7H-cyclopenta[h]isoquinoline-5-sulfonamide] was 50 to 100 nM.

As to `CC(C)CNS(=O)(=O)c1cc2c(c3cnc(C4CC4)cc13)CCC2Nc1c(Nc2cccnc2)c(=O)c1=O` (stereo not shown) [Example 84, 3-cyclopropyl-7-[[3,4-dioxo-2-(pyridin-3-ylamino)cyclobuten-1-yl]amino]-N-(2-methylpropyl)-8,9-dihydro-7H-cyclopenta[h]isoquinoline-5-sulfonamide], the IC50 fell in the range of 10 to 50 nM.

Turning to `CC(C)CNS(=O)(=O)c1cc2c(c3cnc(C4CC4)c(F)c13)CCC2` [Example 27, 3-cyclopropyl-4-fluoro-N-(2-methylpropyl)-8,9-dihydro-7H-cyclopenta[h]isoquinoline-5-sulfonamide], the IC50 was in the range of 100 to 2000 nM.

In the case of `O=S(=O)(NC1CC(F)(F)C1)c1cc2c(c3cnc(C4CC4)cc13)CCC2n1cnnc1NCC1CC1` (stereo not shown) [Example 81, 3-cyclopropyl-7-[3-(cyclopropylmethylamino)-1,2,4-triazol-4-yl]-N-(3,3-difluorocyclobutyl)-8,9-dihydro-7H-cyclopenta[h]isoquinoline-5-sulfonamide], the IC50 was 100 to 2000 nM.

In the case of `CC(C)(F)CNS(=O)(=O)c1cc2c(c3cnc(C4CC4)cc13)CCC2NCc1cc2ccccc2[nH]1` (stereo not shown) [Example 61, 3-cyclopropyl-N-(2-fluoro-2-methylpropyl)-7-(1H-indol-2-ylmethylamino)-8,9-dihydro-7H-cyclopenta[h]isoquinoline-5-sulfonamide], the 50% inhibitory concentration (IC50) was in the range of 100 to 2000 nM. With `CCNc1nncn1C1CCc2cc(S(=O)(=O)NCC(C)C)c3cc(C4CC4)ncc3c21` (stereo not shown) [Example 72, 3-cyclopropyl-9-[3-(ethylamino)-1,2,4-triazol-4-yl]-N-(2-methylpropyl)-8,9-dihydro-7H-cyclopenta[h]isoquinoline-5-sulfonamide], the IC50 lay in the range of 100 to 2000 nM. The value for `CC(C)CNS(=O)(=O)c1cc2c(c3nnc(C4CC4)cc13)CCC2` [Example 22, 3-cyclopropyl-N-(2-methylpropyl)-8,9-dihydro-7H-cyclopenta[h]cinnoline-5-sulfonamide] was 50 to 100 nM; that for `CC(C)CNS(=O)(=O)c1cc2c(c3cnc(C4CC4)cc13)CCC2O` (stereo not shown) [Example 47, 3-cyclopropyl-7-hydroxy-N-(2-methylpropyl)-8,9-dihydro-7H-cyclopenta[h]isoquinoline-5-sulfonamide] was 100 to 2000 nM; that for `Cn1ncc2c(NC3CCc4c3cc(S(=O)(=O)NCC(C)(C)F)c3cc(C5CC5)ncc43)cncc21` (stereo not shown) [Example 41, 3-cyclopropyl-N-(2-fluoro-2-methylpropyl)-7-[(1-methylpyrazolo[3,4-c]pyridin-4-yl)amino]-8,9-dihydro-7H-cyclopenta[h]isoquinoline-5-sulfonamide] was 10 to 50 nM. Then `Cc1cc(C(=O)N[C@@H]2CCc3cc(S(=O)(=O)NCC(C)C)c4cc(C5CC5)ncc4c32)n[nH]1` (single isomer, unassigned) [Example 20, 5-methyl-N-[(9R*)-3-cyclopropyl-5-(2-methylpropylsulfamoyl)-8,9-dihydro-7H-cyclopenta[h]isoquinolin-9-yl]-1H-pyrazole-3-carboxamide], with 100 to 2000 nM; and `Cc1cncc(Nc2nncn2[C@@H]2CCc3c2cc(S(=O)(=O)NCC(C)C)c2cc(C4CC4)ncc32)c1` (single isomer, unassigned) [Example 89, (7R*)-3-cyclopropyl-N-(2-methylpropyl)-7-[3-[(5-methylpyridin-3-yl)amino]-1,2,4-triazol-4-yl]-8,9-dihydro-7H-cyclopenta[h]isoquinoline-5-sulfonamide], with 1 to 10 nM; and `CC(C)(F)CNS(=O)(=O)c1cc2c(c3cnc(C4CC4)cc13)[C@H](NC(=O)c1c[nH]c3cc(F)ccc13)CC2` (single isomer, unassigned) [Example 16, 6-fluoro-N-[(9R*)-3-cyclopropyl-5-[(2-fluoro-2-methylpropyl)sulfamoyl]-8,9-dihydro-7H-cyclopenta[h]isoquinolin-9-yl]-1H-indole-3-carboxamide], with 100 to 2000 nM.

In the case of `CC(C)(F)CNS(=O)(=O)c1cc2c(c3cnc(C4CC4)cc13)CCC2n1nnnc1N` (stereo not shown) [Example 39, 7-(5-aminotetrazol-1-yl)-3-cyclopropyl-N-(2-fluoro-2-methylpropyl)-8,9-dihydro-7H-cyclopenta[h]isoquinoline-5-sulfonamide], the IC50 lay within 100 to 2000 nM. Take `Cc1nnc(-c2ccc(NC3CCc4c3cc(S(=O)(=O)NCC(C)(C)F)c3cc(C5CC5)ncc43)cn2)o1` (stereo not shown) [Example 42, 3-cyclopropyl-N-(2-fluoro-2-methylpropyl)-7-[[6-(5-methyl-1,3,4-oxadiazol-2-yl)pyridin-3-yl]amino]-8,9-dihydro-7H-cyclopenta[h]isoquinoline-5-sulfonamide]: the half-inhibitory concentration (IC50) is 1 to 10 nM. Then `CC(C)(F)CNS(=O)(=O)c1cc2c(c3cnc(C4CC4)cc13)CC[C@H]2Nc1nccn1CC1CC1` (single isomer, unassigned) [Example 13, (7R*)-3-cyclopropyl-7-[[1-(cyclopropylmethyl)imidazol-2-yl]amino]-N-(2-fluoro-2-methylpropyl)-8,9-dihydro-7H-cyclopenta[h]isoquinoline-5-sulfonamide], with 100 to 2000 nM; and `CC(C)CNS(=O)(=O)c1cc2c(c3cnc(C4CC4)cc13)C(NS(=O)(=O)c1cccnc1)CC2` (stereo not shown) [Example 15, 3-cyclopropyl-N-(2-methylpropyl)-9-(pyridin-3-ylsulfonylamino)-8,9-dihydro-7H-cyclopenta[h]isoquinoline-5-sulfonamide], with 100 to 2000 nM. The value for `CC(C)CNS(=O)(=O)c1cc2c(c3cnc(C4CC4)cc13)C(C)(O)CC2` (stereo not shown) [Example 64, 3-cyclopropyl-9-hydroxy-9-methyl-N-(2-methylpropyl)-7,8-dihydrocyclopenta[h]isoquinoline-5-sulfonamide] was 100 to 2000 nM; that for `CCNC1=NS(=O)(=O)N=C1NC1CCc2cc(S(=O)(=O)NCC(C)C)c3cc(C4CC4)ncc3c21` (stereo not shown) [Example 66, 3-cyclopropyl-9-[[4-(ethylamino)-1,1-dioxo-1,2,5-thiadiazol-3-yl]amino]-N-(2-methylpropyl)-8,9-dihydro-7H-cyclopenta[h]isoquinoline-5-sulfonamide] was 100 to 2000 nM; that for `CC(C)(F)CNS(=O)(=O)c1cc2c(c3cnc(C4CC4)cc13)C(Nc1cncnc1)CC2` (stereo not shown) [Example 28, 3-cyclopropyl-N-(2-fluoro-2-methylpropyl)-9-(pyrimidin-5-ylamino)-8,9-dihydro-7H-cyclopenta[h]isoquinoline-5-sulfonamide] was 50 to 100 nM. The value for `O=S(=O)(NC1CC(F)C1)c1cc2c(c3cnc(C4CC4)cc13)CCC2n1cnnc1NCC1CC1` (stereo not shown) [Example 82, 3-cyclopropyl-7-[3-(cyclopropylmethylamino)-1,2,4-triazol-4-yl]-N-(3-fluorocyclobutyl)-8,9-dihydro-7H-cyclopenta[h]isoquinoline-5-sulfonamide] was 100 to 2000 nM; that for `CC(C)(F)CNS(=O)(=O)c1cc2c(c3cnc(C4CC4)cc13)CCC2(O)c1cccnc1` (stereo not shown) [Example 10, 3-cyclopropyl-N-(2-fluoro-2-methylpropyl)-7-hydroxy-7-pyridin-3-yl-8,9-dihydrocyclopenta[h]isoquinoline-5-sulfonamide] was 100 to 2000 nM; that for `Cc1ccc(NC(=NC#N)NC2CCc3c2cc(S(=O)(=O)NCC(C)C)c2cc(C4CC4)ncc32)cc1` (stereo not shown) [Example 55, 2-cyano-1-[3-cyclopropyl-5-(2-methylpropylsulfamoyl)-8,9-dihydro-7H-cyclopenta[h]isoquinolin-7-yl]-3-(4-methylphenyl)guanidine] was 100 to 2000 nM.

On to `Cn1cc(C#N)c(NC2CCc3cc(S(=O)(=O)NCC(C)(C)F)c4cc(C5CC5)ncc4c32)n1` (stereo not shown) [Example 67, 9-[(4-cyano-1-methylpyrazol-3-yl)amino]-3-cyclopropyl-N-(2-fluoro-2-methylpropyl)-8,9-dihydro-7H-cyclopenta[h]isoquinoline-5-sulfonamide], for which the IC50 lay within 100 to 2000 nM. Turning to `CC(C)(F)CNS(=O)(=O)c1cc2c(c3cnc(C4CC4)cc13)C(Nc1cccnc1)CC2` (stereo not shown) [Example 32, 3-cyclopropyl-N-(2-fluoro-2-methylpropyl)-9-(pyridin-3-ylamino)-8,9-dihydro-7H-cyclopenta[h]isoquinoline-5-sulfonamide], the IC50 is 50 to 100 nM. Then `Cc1cc(Nc2nncn2[C@H]2CCc3c2cc(S(=O)(=O)NCC(C)(C)F)c2cc(C4CC4)nnc32)n(C)n1` (single isomer, unassigned) [Example 25, (7R*)-3-cyclopropyl-7-[3-[(2,5-dimethylpyrazol-3-yl)amino]-1,2,4-triazol-4-yl]-N-(2-fluoro-2-methylpropyl)-8,9-dihydro-7H-cyclopenta[h]cinnoline-5-sulfonamide], with 50 to 100 nM.

These data come from patent US20240092773A1, “DIHYDRO-CYCLOPENTA-ISOQUINOLINE SULFONAMIDES DERIVATIVES” (UCB Biopharma SRL, priority 2019, published 2024).
